Measurements as given in patent US20260248812A1, “METHODS OF TREATING CONGENITAL ADRENAL HYPERPLASIA” (Spruce Biosciences, Inc., priority 2019, published 2026).

Assays:
CYP3A4 pathway = CYP3A4 pathway (Homo sapiens, UniProt P08684); test: CYP3A4 pathway inhibition (statement); type: in vitro ADME; settings: dexamethasone is primarily metabolized through the CYP3A4 pathway
Description: (§1) As part of the study, pre and pose concentrations of DEX and cortisol were measured. In some embodiments, the biomarker reduction analysis comprises all subjects.

adults with classic CAH = test: Phase 2 clinical study of Compound 3 with glucocorticoid: time matched change of serial hormone profiles (ACTH, 17-OHP, A4); type: in vivo, human; settings: non-dexamethasone subjects; for A4 level profile, time matched change from baseline: 6 am to 8 am
Description: Study Compound 3, a Phase 2, open-label, first-in-CAH-patients, proof-of-concept, dose ranging study, evaluated the safety and efficacy of repeated doses of SPR001 in adults with classic CAH. The population (n=24; with 2 subjects completing 2 cohorts) consisted of subjects with classic CAH that is not adequately controlled despite a stable glucocorticoid regimen based on the assessment of a single hormone at study screening, 17-OHP>800 ng/dl, which is 4 times the upper limit of a normal reference range of 17-OHP level. 17-OHP was chosen as the hormone as an inclusion criterion, as at the time, it represented the state-of-art in CAH for assessment of disease severity and adequacy of glucocorticoid therapy. The study comprised 3 cohorts, Cohort A was a 6-week intra-subject dose escalation treatment period with three 2-week treatment periods of 200 mg […] (QD) (only daily), 600 mg QD and 1000 mg QD without washout between treatment periods. Cohorts B and C consisted of 2-week treatment periods of either 100 bis in die (BID) (twice daily) (Cohort C) or 200 mg BID (Cohort B). At baseline, the following hormones were assessed, 17-OHP, ACTH and A4. The same hormones were assessed at the end of each 2-week treatment period.
A clinical study is conducted involving up to 52 weeks treatment of Compound 3 with concurrent daily glucocorticoid therapy for the treatment of adults with classic CAH. After screening using A4 and ACTH level criteria, eligible patients are enrolled into up to 12 weeks of placebo-controlled treatment followed by 40 weeks of open label treatment and a 4-week washout/safety follow-up period.
as §1
(§2) A pooled baseline (dotted) and 2 lines (solid) representing two dose groups (doses=200 mg and doses >200 mg) using the percentage change from dose group baseline presented as percentage change from the pooled baseline. The figures are divided by disease control group, poor disease control with highly elevated ACTH and A4 and the good disease control group with ACTH and A4 that is near normal or below normal ranges. Each group has elevated 17-OHP.
as §2, with “In both groups, 17-OHP is elevated above its target (1200 ng/dL). The Y-axis is different with the poor disease control” for “Each”, “exceeding 8000 ng/dL in FIG. 3A and the good disease group was near an upper bound of approximately 3000 ng/dL in FIG. 3B.” for “has elevated 17-OHP.”

CYP3A4 pathway, sequence (P08684 whole entry): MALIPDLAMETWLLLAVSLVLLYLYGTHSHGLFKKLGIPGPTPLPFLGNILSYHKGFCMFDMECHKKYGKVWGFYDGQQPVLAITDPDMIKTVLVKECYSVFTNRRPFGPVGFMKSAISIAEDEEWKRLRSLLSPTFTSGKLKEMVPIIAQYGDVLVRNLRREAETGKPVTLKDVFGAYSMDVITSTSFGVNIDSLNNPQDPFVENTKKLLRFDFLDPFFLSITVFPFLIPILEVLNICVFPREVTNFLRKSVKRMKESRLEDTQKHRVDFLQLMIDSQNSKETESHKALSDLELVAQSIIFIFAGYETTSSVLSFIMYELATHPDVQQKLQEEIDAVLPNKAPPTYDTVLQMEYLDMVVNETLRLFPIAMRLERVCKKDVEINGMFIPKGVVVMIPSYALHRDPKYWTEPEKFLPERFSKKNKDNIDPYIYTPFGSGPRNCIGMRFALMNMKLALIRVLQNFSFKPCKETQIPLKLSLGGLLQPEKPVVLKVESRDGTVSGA

inhibition of the CYP3A4 pathway (CYP3A4 pathway): inhibitor of the CYP3A4 pathway
Compound: CCC(CC)c1cc(C)nc2c(-c3sc(N4CCOCC4)nc3Cl)c(C)nn12 [Compound 3, 4-(4-chloro-5-(2,5-dimethyl-7-(pentan-3-yl)pyrazolo[1,5-a]pyrimidin-3-yl)thiazol-2-yl)morpholine]
17-OHP level, serial hormone profile, time matched change from baseline (adults with classic CAH; both poor and good disease control groups, 10 pm to 8 am, FIGS. 3A and 3B): reduced the magnitude of the increase in 17-OHP post 3 am
ACTH level, serial hormone profile, time matched change from baseline (adults with classic CAH; good disease control group (ACTH and A4 near or below normal), 10 pm to 8 am, FIG. 2B): generally maintained the serial profile below the ULN
A4 level profile, time matched change from baseline (adults with classic CAH; good disease control group, FIG. 4B): further reduce A4 level compared to the baseline level
ACTH level, serial hormone profile, time matched change from baseline (adults with classic CAH; poor disease control group (highly elevated ACTH and A4), 10 pm to 8 am, doses =200 mg and >200 mg, FIG. 2A): reduced the magnitude of the increase in ACTH post 3 am
A4 level profile, time matched change from baseline (adults with classic CAH; poor disease control group, blended gender based ULN approximately 212 ng/dL, FIG. 4A): improves the A4 profile in subjects toward the blended gender based ULN
